{
  "source": "paper PMC5218480",
  "about": "(PLoS ONE, 2017)",
  "test_system": "MV-4-11 cells",
  "assay": "Gene expression microarray analysis (Affymetrix PrimeView) and GSEA",
  "assay_type": "cell-based, human",
  "set-up": "RFU PODN (11730768_x_at) / Fold change /veh PODN (11730768_x_at) / RFU LINC00158 (11744669_a_at) / Fold change /veh LINC00158 (11744669_a_at) / RFU DUSP10 (11751237_a_at) / Fold change /veh DUSP10 (11751237_a_at) / RFU ID3 (11757404_x_at) / Fold change /veh ID3 (11757404_x_at) / RFU PLEKHG5 (11737974_s_at) / Fold change /veh PLEKHG5 (11737974_s_at) / RFU LRRC4B (11730491_at) / Fold change /veh LRRC4B (11730491_at) / RFU GIMAP4 (11747438_a_at) / Fold change /veh GIMAP4 (11747438_a_at) / RFU KRT8 (11758183_x_at) / Fold change /veh KRT8 (11758183_x_at) / RFU CNN1 (11734310_a_at) / Fold change /veh CNN1 (11734310_a_at) / RFU VPS37D (11726825_at) / Fold change /veh VPS37D (11726825_at) / RFU C10orf10 (11716522_x_at) / Fold change /veh C10orf10 (11716522_x_at) / RFU KIR2DL2 /// KIR2DL4 /// KIR2DL5A /// KIR2DL5B /// KIR2DS1 /// KIR2DS2 /// KIR2DS3 /// KIR2DS4 /// KIR3DL3 /// KIR3DL3 /// KIR3DS1 (11738374_at) / Fold change /veh KIR2DL2 /// KIR2DL4 /// KIR2DL5A /// KIR2DL5B /// KIR2DS1 /// KIR2DS2 /// KIR2DS3 /// KIR2DS4 /// KIR3DL3 /// KIR3DL3 /// KIR3DS1 (11738374_at) / RFU C1QL1 (11718748_at) / Fold change /veh C1QL1 (11718748_at) / RFU TMPRSS4 (11747572_a_at) / Fold change /veh TMPRSS4 (11747572_a_at) / RFU HAMP (11756126_x_at) / Fold change /veh HAMP (11756126_x_at) / RFU RNFT2 (11725882_a_at) / Fold change /veh RNFT2 (11725882_a_at) / RFU NR4A2 (11747474_a_at) / Fold change /veh NR4A2 (11747474_a_at) / RFU ABCC12 (11746883_a_at) / Fold change /veh ABCC12 (11746883_a_at) / RFU TMEM136 (11760407_x_at) / Fold change /veh TMEM136 (11760407_x_at) / RFU CLDN22 /// WWC2 (11732394_at) / Fold change /veh CLDN22 /// WWC2 (11732394_at) / RFU HLA-DPB1 (11760878_x_at) / Fold change /veh HLA-DPB1 (11760878_x_at) / RFU SPINT1 (11716480_a_at) / Fold change /veh SPINT1 (11716480_a_at) / RFU GAP43 (11754022_s_at) / Fold change /veh GAP43 (11754022_s_at) / RFU A4GNT (11735810_at) / Fold change /veh A4GNT (11735810_at) / RFU PRB3 (11715151_x_at) / Fold change /veh PRB3 (11715151_x_at) / RFU TUBB4B (11761932_at) / Fold change /veh TUBB4B (11761932_at) / RFU CAPN14 (11732068_a_at) / Fold change /veh CAPN14 (11732068_a_at) / RFU TMCC2 (11721928_a_at) / Fold change /veh TMCC2 (11721928_a_at) / RFU IRGQ (11745062_a_at) / Fold change /veh IRGQ (11745062_a_at) / RFU FAM174B (11720279_a_at) / Fold change /veh FAM174B (11720279_a_at) / RFU TMPRSS4 (11748680_a_at) / Fold change /veh TMPRSS4 (11748680_a_at) / RFU FAM212B (11763350_a_at) / Fold change /veh FAM212B (11763350_a_at) / RFU PLEKHG5 (11743358_a_at) / Fold change /veh PLEKHG5 (11743358_a_at) / RFU ZSCAN30 (11745921_a_at) / Fold change /veh ZSCAN30 (11745921_a_at) / RFU CMKLR1 (11741424_a_at) / Fold change /veh CMKLR1 (11741424_a_at) / RFU LOC101060620 /// MAPK8IP1 (11723275_at) / Fold change /veh LOC101060620 /// MAPK8IP1 (11723275_at) / RFU SPTSSB (11747773_x_at) / Fold change /veh SPTSSB (11747773_x_at) / RFU PRSS12 (11739890_at) / Fold change /veh PRSS12 (11739890_at) / RFU BIN1 (11741810_x_at) / Fold change /veh BIN1 (11741810_x_at) / RFU WNT11 (11732464_a_at) / Fold change /veh WNT11 (11732464_a_at) / RFU C10orf10 (11716521_a_at) / Fold change /veh C10orf10 (11716521_a_at) / RFU C5orf56 (11738089_at) / Fold change /veh C5orf56 (11738089_at) / RFU CYB561 (11721691_x_at) / Fold change /veh CYB561 (11721691_x_at) / RFU ANKRD19P (11752326_a_at) / Fold change /veh ANKRD19P (11752326_a_at) / RFU OR2T12 /// OR2T33 /// OR2T8 (11738714_s_at) / Fold change /veh OR2T12 /// OR2T33 /// OR2T8 (11738714_s_at) / RFU VCAN (11748164_a_at) / Fold change /veh VCAN (11748164_a_at) / RFU JSRP1 (11732532_at) / Fold change /veh JSRP1 (11732532_at) / RFU KRTAP10-11 (11738290_x_at) / Fold change /veh KRTAP10-11 (11738290_x_at) / RFU MYO3A (11730013_a_at) / Fold change /veh MYO3A (11730013_a_at) / RFU EBF3 (11725865_a_at) / Fold change /veh EBF3 (11725865_a_at) / RFU CAMK2N1 (11719241_x_at) / Fold change /veh CAMK2N1 (11719241_x_at) / RFU C5orf56 (11738088_a_at) / Fold change /veh C5orf56 (11738088_a_at) / RFU OLFML3 (11715873_a_at) / Fold change /veh OLFML3 (11715873_a_at) / RFU LOC100653217 /// NTM (11731650_a_at) / Fold change /veh LOC100653217 /// NTM (11731650_a_at) / RFU MAPK11 (11762145_a_at) / Fold change /veh MAPK11 (11762145_a_at) / RFU FIZ1 (11724087_x_at) / Fold change /veh FIZ1 (11724087_x_at) / RFU OASL (11726364_x_at) / Fold change /veh OASL (11726364_x_at) / RFU SOX15 (11748057_x_at) / Fold change /veh SOX15 (11748057_x_at) / RFU CD79A (11719716_a_at) / Fold change /veh CD79A (11719716_a_at) / RFU HIST1H1D (11736915_at) / Fold change /veh HIST1H1D (11736915_at) / RFU CASKIN2 (11723855_a_at) / Fold change /veh CASKIN2 (11723855_a_at) / RFU LOC730098 (11760151_x_at) / Fold change /veh LOC730098 (11760151_x_at) / RFU OR4N2 (11742367_at) / Fold change /veh OR4N2 (11742367_at) / RFU PRRT2 (11749266_a_at) / Fold change /veh PRRT2 (11749266_a_at) / RFU SNX32 (11753110_a_at) / Fold change /veh SNX32 (11753110_a_at) / RFU CDHR5 (11726645_a_at) / Fold change /veh CDHR5 (11726645_a_at) / RFU RCAN1 (11760418_a_at) / Fold change /veh RCAN1 (11760418_a_at) / RFU FAM167A (11723789_a_at) / Fold change /veh FAM167A (11723789_a_at) / RFU FAM26E (11764081_at) / Fold change /veh FAM26E (11764081_at) / RFU ISYNA1 (11749810_s_at) / Fold change /veh ISYNA1 (11749810_s_at) / RFU ACY1 (11761880_at) / Fold change /veh ACY1 (11761880_at) / RFU 11764098_at / Fold change /veh 11764098_at / RFU SAMD14 (11745864_x_at) / Fold change /veh SAMD14 (11745864_x_at) / RFU NPB (11741838_a_at) / Fold change /veh NPB (11741838_a_at) / RFU TMPRSS6 (11731388_a_at) / Fold change /veh TMPRSS6 (11731388_a_at) / RFU KRTAP10-2 (11738614_at) / Fold change /veh KRTAP10-2 (11738614_at) / RFU ARHGAP8 /// PRR5-ARHGAP8 (11727945_x_at) / Fold change /veh ARHGAP8 /// PRR5-ARHGAP8 (11727945_x_at) / RFU KRTAP5-7 /// NADSYN1 (11734609_at) / Fold change /veh KRTAP5-7 /// NADSYN1 (11734609_at) / RFU RASL12 (11751679_a_at) / Fold change /veh RASL12 (11751679_a_at) / RFU CDKN2B (11736163_a_at) / Fold change /veh CDKN2B (11736163_a_at) / RFU PRF1 (11729649_at) / Fold change /veh PRF1 (11729649_at) / RFU, ZNF638 /// ZNF638-IT1 / Fold change vs veh, ZNF638 /// ZNF638-IT1 / RFU, PANK3 / Fold change vs veh, PANK3 / RFU, SH3YL1 / Fold change vs veh, SH3YL1 / RFU, ZEB2 / Fold change vs veh, ZEB2 / RFU, NRIP1 / Fold change vs veh, NRIP1 / RFU, PTTG1IP / Fold change vs veh, PTTG1IP / RFU, CAPN2 / Fold change vs veh, CAPN2 / RFU, MED14 / Fold change vs veh, MED14 / RFU, SNORA58 / Fold change vs veh, SNORA58 / RFU, C1orf63 / Fold change vs veh, C1orf63 / RFU, LRRFIP1 / Fold change vs veh, LRRFIP1 / RFU, NDUFAF7 / Fold change vs veh, NDUFAF7 / RFU, SLC12A2 / Fold change vs veh, SLC12A2 / RFU, IBTK / Fold change vs veh, IBTK / RFU, ESF1 / Fold change vs veh, ESF1 / Fold change vs veh, TMEM50B / RFU, TAOK1 / Fold change vs veh, TAOK1 / RFU, ACBD3 / Fold change vs veh, ACBD3 / RFU, TMA16 / Fold change vs veh, TMA16 / RFU, RWDD3 / Fold change vs veh, RWDD3 / RFU, BCAT1 / Fold change vs veh, BCAT1 / RFU, EDEM3 / Fold change vs veh, EDEM3 / RFU, TMEM33 / Fold change vs veh, TMEM33 / RFU, WDR75 / Fold change vs veh, WDR75 / RFU, AHCTF1 / Fold change vs veh, AHCTF1 / RFU, TFRC / Fold change vs veh, TFRC / RFU, ZDHHC17 / Fold change vs veh, ZDHHC17 / RFU, NOM1 / Fold change vs veh, NOM1 / RFU, ARL8B / Fold change vs veh, ARL8B / RFU, ZBTB11 / Fold change vs veh, ZBTB11 / RFU, TAMM41 / Fold change vs veh, TAMM41 / RFU, KIAA1704 /// LOC100996395 / Fold change vs veh, KIAA1704 /// LOC100996395 / RFU, ING1 / Fold change vs veh, ING1 / RFU, TRMT61B / Fold change vs veh, TRMT61B / RFU, FUBP3 / Fold change vs veh, FUBP3 / RFU, TP53 / Fold change vs veh, TP53 / RFU, TNKS2 / Fold change vs veh, TNKS2 / RFU, ZFP14 / Fold change vs veh, ZFP14 / RFU, ACTR2 / Fold change vs veh, ACTR2 / RFU, PPP3R1 / Fold change vs veh, PPP3R1 / RFU, PIK3R1 / Fold change vs veh, PIK3R1 / RFU, HNRNPA1 / Fold change vs veh, HNRNPA1 / RFU, RNF170 / Fold change vs veh, RNF170 / RFU, ZNF28 / Fold change vs veh, ZNF28 / RFU, RNGTT / Fold change vs veh, RNGTT / RFU, OGT / Fold change vs veh, OGT / RFU, BRD1 / Fold change vs veh, BRD1 / RFU, MARS / Fold change vs veh, MARS / RFU, ZNF655 / Fold change vs veh, ZNF655 / RFU, FAHD1 / Fold change vs veh, FAHD1 / RFU, BDP1 / Fold change vs veh, BDP1 / RFU, LRRCC1 / Fold change vs veh, LRRCC1 / RFU, ARID1A / Fold change vs veh, ARID1A / RFU, ZNF146 / Fold change vs veh, ZNF146 / RFU, ZNF330 / Fold change vs veh, ZNF330 / RFU, GPN3 / Fold change vs veh, GPN3 / RFU, C9orf123 / Fold change vs veh, C9orf123 / RFU, N4BP2L2 / Fold change vs veh, N4BP2L2 / RFU, ARFIP1 / Fold change vs veh, ARFIP1 / RFU, FAM179B / Fold change vs veh, FAM179B / RFU, BCL10 / Fold change vs veh, BCL10 / RFU, UHRF1BP1L / Fold change vs veh, UHRF1BP1L / RFU, BET1 / Fold change vs veh, BET1 / RFU, CNOT2 / Fold change vs veh, CNOT2 / RFU, ZNF268 / Fold change vs veh, ZNF268 / Fold change vs veh, ZNF507 / RFU, DGCR2 / Fold change vs veh, DGCR2 / RFU, WDSUB1 / Fold change vs veh, WDSUB1 / Fold change vs veh, HSP90B1 /// MIR3652 / RFU, ADSS / Fold change vs veh, ADSS / RFU, GK / Fold change vs veh, GK / RFU, ZNF148 / Fold change vs veh, ZNF148 / RFU, TAF9 / Fold change vs veh, TAF9 / RFU, SLC1A5 / Fold change vs veh, SLC1A5 / RFU, SLMO2 / Fold change vs veh, SLMO2 / RFU, ABCC4 / Fold change vs veh, ABCC4 / RFU, LOC101060439 /// RAP1B / Fold change vs veh, LOC101060439 /// RAP1B / RFU, RFX7 / Fold change vs veh, RFX7 / RFU, GTPBP10 / Fold change vs veh, GTPBP10 / RFU, CNEP1R1 / Fold change vs veh, CNEP1R1 / RFU, BIVM-ERCC5 /// ERCC5 / Fold change vs veh, BIVM-ERCC5 /// ERCC5 / RFU, ILF3 / Fold change vs veh, ILF3 / RFU 11762660_at / Fold change /veh 11762660_at / RFU VCAN (11757783_s_at) / Fold change /veh VCAN (11757783_s_at) / RFU DDX43 (11728927_at) / Fold change /veh DDX43 (11728927_at) / RFU KRT8 (11758188_x_at) / Fold change /veh KRT8 (11758188_x_at) / RFU NKD1 (11759106_at) / Fold change /veh NKD1 (11759106_at) / RFU SRD5A1 (11742802_a_at) / Fold change /veh SRD5A1 (11742802_a_at) / RFU TPSAB1 /// TPSB2 (11721975_s_at) / Fold change /veh TPSAB1 /// TPSB2 (11721975_s_at) / RFU GSTM3 (11746129_a_at) / Fold change /veh GSTM3 (11746129_a_at) / RFU IL23R (11737362_x_at) / Fold change /veh IL23R (11737362_x_at) / RFU TMEM51 (11727254_a_at) / Fold change /veh TMEM51 (11727254_a_at) / RFU PIWIL2 (11732686_x_at) / Fold change /veh PIWIL2 (11732686_x_at) / RFU ORM1 (11744905_x_at) / Fold change /veh ORM1 (11744905_x_at) / RFU CCDC152 (11743942_at) / Fold change /veh CCDC152 (11743942_at) / RFU ECM1 (11717891_a_at) / Fold change /veh ECM1 (11717891_a_at) / RFU IL23R (11748794_a_at) / Fold change /veh IL23R (11748794_a_at) / RFU TNFAIP8L3 (11732012_x_at) / Fold change /veh TNFAIP8L3 (11732012_x_at) / RFU MBOAT4 (11741988_at) / Fold change /veh MBOAT4 (11741988_at) / RFU 11764193_at / Fold change /veh 11764193_at / RFU TMEM53 (11763286_at) / Fold change /veh TMEM53 (11763286_at) / RFU MAGEB2 (11727129_at) / Fold change /veh MAGEB2 (11727129_at) / RFU TMEM200A (11744735_a_at) / Fold change /veh TMEM200A (11744735_a_at) / RFU CCDC152 (11751479_a_at) / Fold change /veh CCDC152 (11751479_a_at) / RFU FAM211A (11726209_a_at) / Fold change /veh FAM211A (11726209_a_at) / RFU RGS16 (11746705_a_at) / Fold change /veh RGS16 (11746705_a_at) / RFU VCAN (11755009_s_at) / Fold change /veh VCAN (11755009_s_at) / RFU RHOB (11743442_s_at) / Fold change /veh RHOB (11743442_s_at) / RFU RGS16 (11720943_a_at) / Fold change /veh RGS16 (11720943_a_at) / RFU RGS16 (11720944_at) / Fold change /veh RGS16 (11720944_at) / RFU, VPS4B / Fold change vs veh, VPS4B / RFU, CREB1 / Fold change vs veh, CREB1 / RFU, DNAJC13 / Fold change vs veh, DNAJC13 / RFU, GNAQ / Fold change vs veh, GNAQ / RFU, CDK5R1 / Fold change vs veh, CDK5R1 / RFU, ZRANB3 / Fold change vs veh, ZRANB3 / RFU, CUL4A / Fold change vs veh, CUL4A / RFU, CCNY / Fold change vs veh, CCNY / RFU, UFL1 / Fold change vs veh, UFL1 / RFU, COG3 / Fold change vs veh, COG3 / RFU, DIAPH2 / Fold change vs veh, DIAPH2 / RFU, SKA2 / Fold change vs veh, SKA2 / RFU, AFF3 / Fold change vs veh, AFF3 / RFU, LMF1 / Fold change vs veh, LMF1 / RFU, IPO11 / Fold change vs veh, IPO11 / RFU, DFFB / Fold change vs veh, DFFB / RFU, FOXP1 / Fold change vs veh, FOXP1 / RFU, CARD8 / Fold change vs veh, CARD8 / RFU, STRN3 / Fold change vs veh, STRN3 / RFU, ADK / Fold change vs veh, ADK / RFU, RASSF2 / Fold change vs veh, RASSF2 / RFU, WIPF1 / Fold change vs veh, WIPF1 / RFU, LARP1B / Fold change vs veh, LARP1B / RFU, RASA1 / Fold change vs veh, RASA1 / RFU, RB1 / Fold change vs veh, RB1 / RFU, PPFIA1 / Fold change vs veh, PPFIA1 / RFU, MAT2A / Fold change vs veh, MAT2A / RFU, CCT5 / Fold change vs veh, CCT5 / RFU, WDR92 / Fold change vs veh, WDR92 / RFU, CUX1 / Fold change vs veh, CUX1 / RFU, TTC7A / Fold change vs veh, TTC7A / RFU, TMEM135 / Fold change vs veh, TMEM135 / RFU, DEPTOR / Fold change vs veh, DEPTOR / RFU, CPM / Fold change vs veh, CPM / RFU, DNAJB6 / Fold change vs veh, DNAJB6 / RFU, CACNA2D3 / Fold change vs veh, CACNA2D3 / RFU, DTX4 / Fold change vs veh, DTX4 / RFU, TFCP2 / Fold change vs veh, TFCP2 / RFU, GMCL1 /// GMCL1P1 / Fold change vs veh, GMCL1 /// GMCL1P1 / RFU, AEBP2 / Fold change vs veh, AEBP2 / RFU, SNHG1 /// SNORD22 /// SNORD25 /// SNORD26 /// SNORD27 /// SNORD28 /// SNORD29 /// SNORD31 / Fold change vs veh, SNHG1 /// SNORD22 /// SNORD25 /// SNORD26 /// SNORD27 /// SNORD28 /// SNORD29 /// SNORD31 / Fold change (Aza/veh), C12orf56 (ProbeSet 11735607_a_at) / Fold change (ACY-1035/veh), C12orf56 (ProbeSet 11735607_a_at) / Fold change (Aza/veh), FGFR1OP (ProbeSet 11751329_s_at) / Fold change (ACY-1035/veh), FGFR1OP (ProbeSet 11751329_s_at) / Fold change (Aza/veh), VPS36 (ProbeSet 11739960_a_at) / Fold change (ACY-1035/veh), VPS36 (ProbeSet 11739960_a_at) / RFU SYPL1 (11715823_x_at) / Fold change /veh SYPL1 (11715823_x_at) / RFU IGFBP7 (11715501_s_at) / Fold change /veh IGFBP7 (11715501_s_at) / RFU REEP3 (11722064_at) / Fold change /veh REEP3 (11722064_at) / RFU IGLL1 (11728026_x_at) / Fold change /veh IGLL1 (11728026_x_at): dose or concentration left out as unconfirmed",
  "details": "MV-4-11 cells, 48 hours",
  "data": [
    {"smiles": "Nc1ncn([C@@H]2O[C@H](CO)[C@@H](O)[C@H]2O)c(=O)n1", "note": "[azacitidine]", "values": [
      {"measurement": "RFU MYO3A (11730013_a_at)", "value": 81.22, "unit": "RFU"}
    ]}
  ]
}
